Patent US9011927B2, “Pentablock polymers” (The Curators of the University of Missouri, priority 2010, dated 2015)

What was measured:
Assay type in all cases: cell-based
[1] = tested on: ARPE-19 (human retinal pigment epithelial cell line); test: MTS assay on Pentablock Polymer B, ARPE 19; conditions: ARPE 19, Triton X positive control
Experimental: The cytotoxicity and biocompatibility of the Pentablock Polymer A and Pentablock Polymer B were investigated in several cell lines. ARPE-19 (human retinal pigment epithelial cell line), SIRC (rabbit corneal cell line), and RAW 264.7 (mouse macrophage cell line) were obtained from American Type Culture Collection (“ATCC”). ARPE-19 cells were cultured in Dubelcco's modified Eagle's medium (“DMEM/F12”) supplemented with 10% fetal bovine serum (“FBS”), 100 U/mL penicillin and 100 μg/mL of streptomycin. SIRC cells were cultured in minimum essential medium (“MEM”) and supplemented with 10% FBS, 100 U/mL of penicillin and 100 μg/mL of streptomycin. RAW 264.7 (Mouse macrophage cells) cells were cultured in DMEM/[…] with 10% FBS, 10% of nonessential amino acids, 100 U/mL penicillin and 100 μg/mL of streptomycin. […] The cell cultures were exposed directly to different concentrations of Pentablock Polymer A and Pentablock Polymer B. Pentablock Polymer B: Cytotoxicity for Pentablock Polymer B was performed at different concentration ranging from 0.5-10 mg/ml. The plates were seeded with cell density of 10,000 cells/100 μL. […] After incubation, the absorbance of each well was measured at 450 nm by ELISA plate reader. The absorbance is directly proportional to viability of cells.

[2] = tested on: SIRC (rabbit corneal cell line); test: MTS assay on Pentablock Polymer A, SIRC; conditions: Triton X positive control
Experimental: (§1) The cytotoxicity and biocompatibility of the Pentablock Polymer A and Pentablock Polymer B were investigated in several cell lines. ARPE-19 (human retinal pigment epithelial cell line), SIRC (rabbit corneal cell line), and RAW 264.7 (mouse macrophage cell line) were obtained from American Type Culture Collection (“ATCC”). ARPE-19 cells were cultured in Dubelcco's modified Eagle's medium (“DMEM/F12”) supplemented with 10% fetal bovine serum (“FBS”), 100 U/mL penicillin and 100 μg/mL of streptomycin. SIRC cells were cultured in minimum essential medium (“MEM”) and supplemented with 10% FBS, 100 U/mL of penicillin and 100 μg/mL of streptomycin. RAW 264.7 (Mouse macrophage cells) cells were cultured in DMEM/F12supplemented with 10% FBS, 10% of nonessential amino acids, 100 U/mL penicillin and 100 μg/mL of streptomycin. The pH of the medium was adjusted to 7.4 and cells were incubated in humidified atmosphere at 37° C. temperature with 5% CO2 environment. The cell cultures were exposed directly to different concentrations of Pentablock Polymer A and Pentablock Polymer B. […]
(§2) MTS assay is based on the reduction of the tetrazolium salt (yellow) to fromazone (purple) by mitochondrial enzymes of metabolic active cells. […] After incubation, the absorbance of each well was measured at 450 nm by ELISA plate reader. The absorbance is directly proportional to viability of cells.

PCEC = test: MTS assay on Pentablock Polymer B, PCEC; conditions: Triton X positive control
Experimental: Pentablock Polymer B: Cytotoxicity for Pentablock Polymer B was performed at different concentration ranging from 0.5-10 mg/ml. The plates were seeded with cell density of 10,000 cells/100 μL. After 24 hours of incubation fresh medium containing hydrogel of different concentration ranging from 0.5-10 mg/ml were added and further incubated for 24 hours. MTS assay is based on the reduction of the tetrazolium salt (yellow) to fromazone (purple) by mitochondrial enzymes of metabolic active cells. The amount of the fromazone is directly proportional to viable cells. In MTS assay Trioton X treated cells were served as […]. […] After incubation, the absorbance of each well was measured at 450 nm by ELISA plate reader. The absorbance is directly proportional to viability of cells.

[3] = tested on: RAW 264.7 (mouse macrophage cell line); test: MTS assay on Pentablock Polymer A, RAW 264.7; conditions: RAW 264.7, Triton X positive control
Experimental: as §1, §2

Triton X
MTS assay (absorbance proportional to viability of cells) [1]: 0.000 | MTS assay (absorbance proportional to viability of cells) [2]: 0 | MTS assay (absorbance proportional to viability of cells) (PCEC): 0.000 | MTS assay (absorbance proportional to viability of cells) [3]: 0
